Results published in article PMC10322960 (European Journal of Drug Metabolism and Pharmacokinetics, 2023).
“Also recorded” adds a separate entry of the source. Where two headings read alike, the source gives them in different places.

Legend:
[1] = biological target: CYP2C19 (Homo sapiens, UniProt P33261); experiment: In vitro P450 inhibition, recombinant CYP2C19; type: in vitro ADME
[2] = biological target: MATE2-K (Homo sapiens, UniProt Q86VL8); experiment: MATE2-K uptake inhibition assay; type: in vitro ADME; settings: at 40 µM
Sequence of MATE2-K (Q86VL8 1-566 isoform Q86VL8-3): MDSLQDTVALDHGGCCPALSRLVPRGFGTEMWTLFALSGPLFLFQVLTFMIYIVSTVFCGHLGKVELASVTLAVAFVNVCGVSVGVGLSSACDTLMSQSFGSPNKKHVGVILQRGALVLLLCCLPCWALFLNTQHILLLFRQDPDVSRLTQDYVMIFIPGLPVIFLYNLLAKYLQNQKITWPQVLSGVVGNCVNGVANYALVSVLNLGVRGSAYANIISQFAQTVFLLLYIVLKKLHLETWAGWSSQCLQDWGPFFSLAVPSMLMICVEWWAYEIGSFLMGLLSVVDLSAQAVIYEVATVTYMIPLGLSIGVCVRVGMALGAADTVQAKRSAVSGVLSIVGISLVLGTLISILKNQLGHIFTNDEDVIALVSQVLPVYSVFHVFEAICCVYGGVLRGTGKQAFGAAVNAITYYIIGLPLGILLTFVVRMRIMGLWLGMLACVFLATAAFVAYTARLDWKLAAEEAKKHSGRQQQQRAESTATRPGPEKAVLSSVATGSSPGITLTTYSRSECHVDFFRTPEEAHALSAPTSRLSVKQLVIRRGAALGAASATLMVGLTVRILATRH

[3] = tested on: CYP3A4; settings: ocedurenone at 0.1, 1, or 10 μM, 72 h; inducer criterion 40%
[4] = biological target: T1, OATP1B1 (Homo sapiens, UniProt Q9Y6L6); experiment: OATP1B1 uptake inhibition assay; type: in vitro ADME
T1 sequence (Q9Y6L6 1-691): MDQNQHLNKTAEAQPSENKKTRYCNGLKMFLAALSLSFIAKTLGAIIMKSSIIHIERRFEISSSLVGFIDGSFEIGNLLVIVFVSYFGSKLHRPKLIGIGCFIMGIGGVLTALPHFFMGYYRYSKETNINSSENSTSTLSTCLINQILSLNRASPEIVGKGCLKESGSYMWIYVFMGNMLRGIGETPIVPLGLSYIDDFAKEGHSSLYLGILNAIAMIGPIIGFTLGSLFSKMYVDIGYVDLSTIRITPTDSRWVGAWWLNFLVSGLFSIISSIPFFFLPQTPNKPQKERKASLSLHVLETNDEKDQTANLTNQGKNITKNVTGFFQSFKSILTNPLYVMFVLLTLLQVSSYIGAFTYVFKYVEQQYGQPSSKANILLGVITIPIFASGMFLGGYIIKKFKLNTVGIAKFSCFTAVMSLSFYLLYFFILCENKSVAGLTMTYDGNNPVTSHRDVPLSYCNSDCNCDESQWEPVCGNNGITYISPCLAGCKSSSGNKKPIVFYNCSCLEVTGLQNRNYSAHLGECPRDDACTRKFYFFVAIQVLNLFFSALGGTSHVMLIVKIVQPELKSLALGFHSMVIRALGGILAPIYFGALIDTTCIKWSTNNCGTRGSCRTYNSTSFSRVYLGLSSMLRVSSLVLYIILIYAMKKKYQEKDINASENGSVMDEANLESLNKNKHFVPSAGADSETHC

[5] = biological target: T2, OAT3 (Homo sapiens, UniProt Q8TCC7); experiment: OAT3 uptake substrate assay; type: in vitro ADME
T2 sequence (Q8TCC7 1-542): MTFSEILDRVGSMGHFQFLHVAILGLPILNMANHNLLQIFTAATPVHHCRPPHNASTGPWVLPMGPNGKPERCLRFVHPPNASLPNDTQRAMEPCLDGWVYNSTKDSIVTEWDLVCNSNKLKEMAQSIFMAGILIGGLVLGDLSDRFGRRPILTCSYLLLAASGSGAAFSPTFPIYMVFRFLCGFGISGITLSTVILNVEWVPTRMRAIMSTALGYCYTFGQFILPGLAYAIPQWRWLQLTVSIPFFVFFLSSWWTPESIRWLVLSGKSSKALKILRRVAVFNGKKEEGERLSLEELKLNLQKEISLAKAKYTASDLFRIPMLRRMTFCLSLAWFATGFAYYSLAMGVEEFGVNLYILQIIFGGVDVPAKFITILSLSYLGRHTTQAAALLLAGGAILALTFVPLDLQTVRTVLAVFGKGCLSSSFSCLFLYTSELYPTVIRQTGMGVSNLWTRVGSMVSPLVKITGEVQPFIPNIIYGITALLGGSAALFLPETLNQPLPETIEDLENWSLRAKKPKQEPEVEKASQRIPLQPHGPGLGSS

[6] = biological target: T3, OATP1B3 (Homo sapiens, UniProt Q9NPD5); experiment: OATP1B3 uptake inhibition assay; type: in vitro ADME; settings: at 40 µM
T3 sequence (Q9NPD5 1-702): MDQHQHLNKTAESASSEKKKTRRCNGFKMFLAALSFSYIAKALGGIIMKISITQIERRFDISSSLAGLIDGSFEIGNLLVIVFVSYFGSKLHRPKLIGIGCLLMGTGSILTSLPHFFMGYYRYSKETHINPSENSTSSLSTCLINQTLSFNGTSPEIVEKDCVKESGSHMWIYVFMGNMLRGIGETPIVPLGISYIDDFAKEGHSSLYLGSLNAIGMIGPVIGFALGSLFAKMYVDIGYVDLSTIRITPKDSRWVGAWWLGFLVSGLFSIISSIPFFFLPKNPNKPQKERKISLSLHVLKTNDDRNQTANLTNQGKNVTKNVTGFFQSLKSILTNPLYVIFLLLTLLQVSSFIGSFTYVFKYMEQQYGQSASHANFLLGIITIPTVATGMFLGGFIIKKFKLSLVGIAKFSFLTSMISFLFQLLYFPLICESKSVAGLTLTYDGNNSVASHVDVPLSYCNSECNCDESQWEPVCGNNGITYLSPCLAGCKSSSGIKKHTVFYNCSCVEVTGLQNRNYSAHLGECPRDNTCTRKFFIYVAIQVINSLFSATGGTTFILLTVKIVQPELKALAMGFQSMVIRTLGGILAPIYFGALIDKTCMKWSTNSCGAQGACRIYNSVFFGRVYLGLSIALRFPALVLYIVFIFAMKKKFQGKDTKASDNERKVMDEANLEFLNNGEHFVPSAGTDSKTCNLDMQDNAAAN

[7] = biological target: CYP3A4 (Homo sapiens, UniProt P08684); type: in vitro ADME
Sequence of CYP3A4 (Homo sapiens, UniProt P08684) (P08684 whole entry): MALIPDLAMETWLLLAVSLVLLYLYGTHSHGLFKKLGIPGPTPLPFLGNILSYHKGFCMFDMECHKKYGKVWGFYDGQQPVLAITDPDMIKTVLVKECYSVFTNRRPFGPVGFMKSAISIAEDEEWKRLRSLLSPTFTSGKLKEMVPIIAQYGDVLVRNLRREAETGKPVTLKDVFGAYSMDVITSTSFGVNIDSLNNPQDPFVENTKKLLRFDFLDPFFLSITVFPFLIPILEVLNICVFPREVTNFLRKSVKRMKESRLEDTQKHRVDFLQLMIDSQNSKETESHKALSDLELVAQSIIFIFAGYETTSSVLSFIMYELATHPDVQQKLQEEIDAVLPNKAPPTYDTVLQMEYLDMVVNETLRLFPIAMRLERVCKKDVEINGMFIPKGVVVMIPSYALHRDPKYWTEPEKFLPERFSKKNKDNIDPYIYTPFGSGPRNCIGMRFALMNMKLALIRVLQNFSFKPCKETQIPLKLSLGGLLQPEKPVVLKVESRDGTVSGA

[8] = Phase 1 clinical drug–drug interaction study, safety assessment; type: in vivo, human
[9] = tested on: human liver microsomes; experiment: Human liver microsome incubation with or without chemical enzyme inhibitors; type: in vitro ADME
[10] = biological target: T3, OATP1B3; experiment: OATP1B3 uptake substrate assay; type: in vitro ADME
[11] = transporter-expressing vs control cells, 0.04–40 µm
[12] = Cohort 2, 12 subjects, mild in severity
[13] = rifampin cohort, 12 participants

Sequence of CYP2C19 (P33261 whole entry): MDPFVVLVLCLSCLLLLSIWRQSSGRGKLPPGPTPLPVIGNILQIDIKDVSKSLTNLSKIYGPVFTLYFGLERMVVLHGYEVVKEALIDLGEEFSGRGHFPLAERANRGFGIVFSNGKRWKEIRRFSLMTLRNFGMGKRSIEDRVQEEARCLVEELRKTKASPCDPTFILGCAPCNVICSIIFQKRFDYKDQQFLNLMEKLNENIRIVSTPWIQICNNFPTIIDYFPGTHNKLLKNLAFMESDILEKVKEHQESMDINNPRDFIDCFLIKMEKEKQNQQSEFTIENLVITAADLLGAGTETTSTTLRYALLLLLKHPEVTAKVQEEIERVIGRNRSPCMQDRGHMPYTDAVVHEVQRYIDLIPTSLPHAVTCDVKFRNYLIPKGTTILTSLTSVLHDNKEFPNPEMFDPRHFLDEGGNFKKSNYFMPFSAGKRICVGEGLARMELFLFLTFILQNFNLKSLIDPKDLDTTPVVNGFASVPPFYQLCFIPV

## N#Cc1ccc(N2N=C3c4ccc(C(=O)N5CCC(O)CC5)nc4CC[C@@H]3[C@@H]2C2CCCC2)cc1Cl [Ocedurenone, ocedurenone]
[1]; ocedurenone at 200 μM
  percent remaining activity of CYP2C19: 78.5%
[1]; read-out: IC50 CYP2C19, recombinant CYP
  IC50: > 200 µM
[1]; recombinant enzyme
  inhibition category CYP2C19: little or no inhibition
[2]
  maximum inhibition of MATE2-K-mediated probe substrate accumulation: 79%
[3]
  percent CYP3A4 induction (of positive control): lower than 40%
[4]; at 40 µM
  maximum inhibition of OATP1B1-mediated probe substrate accumulation: 72%
[4]; read-out: Inhibition results (IC50), OATP1B1 UPT, uptake assay
  IC50: 21.9 µM
[5]
  Substrate, OAT3 UPT: not likely to be a substrate
[5]; [11]
  Maximum fold accumulation, OAT3 UPT: < 2
[6]
  maximum inhibition of OATP1B3-mediated probe substrate accumulation: 58%
[7]; ocedurenone at 200 μM, midazolam probe
  percent remaining activity of CYP3A4 (midazolam-based): 70.2%
[7]; ocedurenone at 200 μM, testosterone probe
  percent remaining activity of CYP3A4 (testosterone-based): 68.1%
[7]; read-out: IC50 CYP3A4 (midazolam-based), midazolam probe
  IC50: > 200 µM
[7]; read-out: IC50 CYP3A4 (testosterone-based), testosterone probe
  IC50: > 200 µM
[7]; recombinant enzyme
  inhibition category CYP3A4: little or no inhibition
[8]; Cohort 1 (itraconazole cohort), 12 subjects
  treatment-emergent AEs considered related to ocedurenone: No treatment-emergent AEs; also recorded: no treatment-emergent adverse events
[8]; [12]
  number of treatment-emergent AEs considered related to the drug: 5
  subjects with treatment-emergent AEs considered related to the drug: 25.0%
[8]; [13]
  participants with headache (TEAE related to ocedurenone): 16.7%
  participants with hyperhidrosis (TEAE related to ocedurenone): 8.3%
  participants with nausea (TEAE related to ocedurenone): 8.3%
  participants with nervousness (TEAE related to ocedurenone): 8.3%
[8]; single 0.5-mg dose alone and with itraconazole or rifampin, healthy participants
  tolerability: safe and well-tolerated
[9]
  stability in human hepatic microsomes: stable
[9]; 1-aminobenzotriazole or ketoconazole added separately, 3 µm ocedurenone
  ocedurenone metabolism in HLM with chemical inhibitor added: inhibited
[10]
  Substrate, OATP1B3 UPT: not likely to be a substrate
[10]; [11]
  Maximum fold accumulation, OATP1B3 UPT: 1.1
